The record followed here is patent US20050013856A1, “Solid dispersions comprising a hygroscopic and/or deliquescent drug” (priority 2002, published 2005).

Data set [1] can be described thus: Hygroscopicity / deliquescence of the unformulated drug. The data set is classed as physicochemical. The source says:
It is particularly surprising that such a hygroscopic and deliquescent drug can be formulated in accordance with the present invention as an acceptably non-hygroscopic composition.

A short description of data set [2]: Solubility of the drug in matrix forming agents HPMC and PEG. It counts as physicochemical.

In the case of `CC(=N)NCCSC[C@](C)(N)C(=O)O` [S-[2-[(1-iminoethyl)amino]ethyl]-2-methyl-L-cysteine], the Hygroscopicity and deliquescence entry in data set [1] was “extremely hygroscopic and deliquescent”. In addition, the “Solubility in HPMC and PEG” value in data set [2] is “low solubility”. For the compound “S-[2-[(1-iminoethyl)amino]ethyl]-2-methyl-L-cysteine dihydrochoride [Compound A]”, the Hygroscopicity and deliquescence result in data set [1] was “extremely hygroscopic and deliquescent”.
